In patent US20260206763A1, “AMIDE COMPOUNDS OR SALTS THEREOF, BACTERICIDAL AGENTS FOR AGRICULTURE AND HORTICULTURE CONTAINING SAID COMPOUNDS, AND METHOD OF USING SAME” (NIHON NOHYAKU CO., LTD., priority 2022, published 2026):

What was measured:
Assay type in all cases: cell-based
Botrytis cinerea = assay: microbe, parasite or virus in culture; settings: read-out: median effective concentration (EC50), mycelium growth inhibitory activity
Fusarium graminearum = assay: microbe, parasite or virus in culture; settings: read-out: median effective concentration (EC50), mycelium growth inhibitory activity
Sclerotinia sclerotirum = assay: microbe, parasite or virus in culture; settings: read-out: median effective concentration (EC50), mycelium growth inhibitory activity
Cochliobolus miyabeanus = assay: Antifungal activity test, mycelium growth inhibition on PDA medium; settings: Bipolaris oryzae, read-out: median effective concentration (EC50), mycelium growth inhibitory activity
[1] = test system: Botryosphaeria berengeriana

SMILES | EC50 (Botrytis cinerea) [µg/mL] | EC50 (Fusarium graminearum) [µg/mL] | EC50 (Sclerotinia sclerotirum) [µg/mL] | EC50 (Cochliobolus miyabeanus) [µg/mL] | median effective concentration (EC50), spore germination inhibitory activity [1] [ppm]
Cc1ccc(CNC(=O)C2(c3ccc(Oc4nc5ccccc5s4)cc3)CC2(Cl)Cl)nc1 (centres unmarked) [I-A-288] | ≤ 200 | ≤ 200 | ≤ 200 | ≤ 200 | 
Cc1ccc(CNC(=O)C2(c3ccc(-c4ccccc4F)cc3)CC2(Cl)Cl)nc1 (centres unmarked) [I-A-261] | ≤ 200 | ≤ 200 | ≤ 200 | ≤ 200 | 
O=C1c2ccccc2COc2ccc(C3(C(=O)NCc4ccccn4)CC3(Cl)Cl)cc21 (centres unmarked) [I-A-78] | ≤ 200 |  | ≤ 200 | ≤ 200 | 
CC(C)(C)c1ccc(C2(C(=O)N3CCc4cccnc4C3)CC2(Cl)Cl)cc1 (centres unmarked) [I-A-371] |  | ≤ 200 | ≤ 200 | ≤ 200 | 
O=C(NCc1ccccn1)C1(c2ccc(-c3noc(C(F)(F)F)n3)cc2)CC1(Cl)Cl (centres unmarked) [I-A-132] | ≤ 200 | ≤ 200 | ≤ 200 | ≤ 200 | 
O=C(NCc1ccccn1)C1(c2ccc(N=C(c3ccccc3)c3ccccc3)cc2)CC1(Cl)Cl (centres unmarked) [I-A-159] | ≤ 200 |  | ≤ 200 | ≤ 200 | 
Cc1ccc(CNC(=O)C2(c3ccc(C4=CCCC4)cc3)CC2(Cl)Cl)nc1 (centres unmarked) [I-A-267] | ≤ 200 | ≤ 200 | ≤ 200 | ≤ 200 | 
O=C(NCc1ccccn1)C1(c2ccc(C(F)(F)F)cc2)CC1(Cl)Cl (centres unmarked) [I-A-36] |  |  |  |  | ≤ 200
CC(C)(C)c1ccc(C2(C(=O)NCc3ccccn3)CC2(Cl)Cl)cc1 (centres unmarked) [I-A-101] | ≤ 200 | ≤ 200 | ≤ 200 | ≤ 200 | 
Cc1ccc(CNC(=O)C2(c3ccc(I)cc3)CC2(Cl)Cl)nc1 (centres unmarked) [I-A-257] | ≤ 200 | ≤ 200 | ≤ 200 | ≤ 200 | 
Cc1ccc(CNC(=O)C2(c3ccc(S(=O)(=O)c4ccccc4)cc3)CC2(Cl)Cl)[n+]([O-])c1 (centres unmarked) [I-A-280] |  | ≤ 200 | ≤ 200 | ≤ 200 | 
Cc1ccc(CNC(=O)C2(c3ccc(C4=CCCCC4)cc3)CC2(Cl)Cl)nc1 (centres unmarked) [I-A-268] | ≤ 200 | ≤ 200 | ≤ 200 | ≤ 200 | 
